In article PMC11845477, “Exploring the principles behind antibiotics with limited resistance” (Nature Communications, 2025):
Where a SMILES comes first, the peptide text is derived from it. Bridges are numbered along the chain shown (N, C = ends). [ ]: non-standard residue; d: D form. The star is where a group is joined. X1 = NC[C@@H](CC(=O)*)c1cccc(Cl)c1; Dab = NCC[C@H](N)C(=O)O; Dap = NC[C@H](N)C(=O)O

System: E. coli ATCC 25922 (SEN) and E. coli NCTC13846 (MDR)
Test: Adaptive laboratory evolution (ALE), relative MIC of evolved lines
Format: cell-based, Escherichia coli
Procedure, shortened: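 Ten parallel populations per antibiotic–ancestor pair were evolved in MHB at 37 °C, starting near 50% growth-inhibiting drug. Every 72 h they were passaged into 0.5–2.5× increasing concentrations, keeping the highest-drug well with OD600 > 0.2.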

CC(C)C[C@@H]1NC(=O)[C@@H](Cc2ccccc2)NC(=O)[C@H](CCN)NC(=O)[C@@H](NC(=O)[C@H](CN)NC(=O)[C@@H](NC(=O)C[C@H](CN)c2cccc(Cl)c2)[C@@H](C)O)CCNC(=O)[C@H]([C@@H](C)O)NC(=O)[C@H](CCN)NC(=O)[C@H](CCN)NC1=O [SPR206] (X1-T[Dap][Dab][Dab][dF]L[Dab][Dab]T; lactam 3-C (inferred); N-terminus assumed)
MIC of evolved line (EC-MDR (NCTC 13846), evolved line 2): 64 µg/mL
Relative MIC (EC-MDR (NCTC 13846), evolved line 2, evolved vs ancestor): 16
Relative MIC (EC-MDR (NCTC 13846), evolved line 3, evolved vs ancestor): 16
MIC of evolved line (EC-MDR (NCTC 13846), evolved line 4): 64 µg/mL
Relative MIC (EC-MDR (NCTC 13846), evolved line 4, evolved vs ancestor): 16
Relative MIC (EC-MDR (NCTC 13846), evolved line 5, evolved vs ancestor): 32
Relative MIC (EC-MDR (NCTC 13846), evolved line 6, evolved vs ancestor): 8
MIC of evolved line (EC-MDR (NCTC 13846), evolved line 7): 32 µg/mL
Relative MIC (EC-MDR (NCTC 13846), evolved line 7, evolved vs ancestor): 8
Relative MIC (EC-MDR (NCTC 13846), evolved line 8, evolved vs ancestor): 16
Relative MIC (EC-MDR (NCTC 13846), evolved line 9, evolved vs ancestor): 16
Relative MIC (EC-MDR (NCTC 13846), evolved line 10, evolved vs ancestor): 32
MIC of evolved line (EC-MDR NCTC 13846, evolved line 3): 64 µg/mL
MIC of evolved line (EC-MDR NCTC 13846, evolved line 5): 128 µg/mL
MIC of evolved line (EC-MDR NCTC 13846, evolved line 6): 32 µg/mL
MIC of evolved line (EC-MDR NCTC 13846, evolved line 8): 64 µg/mL
MIC of evolved line (EC-MDR NCTC 13846, evolved line 9): 64 µg/mL
MIC of evolved line (EC-MDR NCTC 13846, evolved line 10): 128 µg/mL
MIC of evolved line (EC-SEN (ATCC 25922), evolved line 1): 128 µg/mL
Relative MIC (EC-SEN (ATCC 25922), evolved line 1, evolved vs ancestor): 512
MIC of evolved line (EC-SEN (ATCC 25922), evolved line 2): 64 µg/mL
Relative MIC (EC-SEN (ATCC 25922), evolved line 2, evolved vs ancestor): 256
MIC of evolved line (EC-SEN (ATCC 25922), evolved line 3): 128 µg/mL
Relative MIC (EC-SEN (ATCC 25922), evolved line 3, evolved vs ancestor): 512
MIC of evolved line (EC-SEN (ATCC 25922), evolved line 4): 64 µg/mL
Relative MIC (EC-SEN (ATCC 25922), evolved line 4, evolved vs ancestor): 256
MIC of evolved line (EC-SEN (ATCC 25922), evolved line 5): 32 µg/mL
Relative MIC (EC-SEN (ATCC 25922), evolved line 5, evolved vs ancestor): 128
MIC of evolved line (EC-SEN (ATCC 25922), evolved line 6): 128 µg/mL
Relative MIC (EC-SEN (ATCC 25922), evolved line 6, evolved vs ancestor): 512
MIC of evolved line (EC-SEN (ATCC 25922), evolved line 7): 64 µg/mL
Relative MIC (EC-SEN (ATCC 25922), evolved line 7, evolved vs ancestor): 256
MIC of evolved line (EC-SEN (ATCC 25922), evolved line 8): 32 µg/mL
Relative MIC (EC-SEN (ATCC 25922), evolved line 8, evolved vs ancestor): 128
MIC of evolved line (EC-SEN (ATCC 25922), evolved line 9): 64 µg/mL
Relative MIC (EC-SEN (ATCC 25922), evolved line 9, evolved vs ancestor): 256
MIC of evolved line (EC-SEN (ATCC 25922), evolved line 10): 4 µg/mL
Relative MIC (EC-SEN (ATCC 25922), evolved line 10, evolved vs ancestor): 16
Relative MIC (log10) (EC-SEN (Escherichia coli ATCC 25922), evolved line 3): 2.709 log10
Relative MIC (log10) (EC-SEN (Escherichia coli ATCC 25922), evolved line 4): 2.408 log10
Relative MIC (log10) (EC-SEN (Escherichia coli ATCC 25922), evolved line 6): 2.709 log10
Relative MIC (log10) (EC-SEN (Escherichia coli ATCC 25922), evolved line 9): 2.408 log10
Relative MIC (log10) (EC-SEN, Escherichia coli ATCC 25922, evolved line 1): 2.709 log10
Relative MIC (Escherichia coli ATCC 25922 (EC-SEN), evolved line 1): 512
Relative MIC (Escherichia coli ATCC 25922 (EC-SEN), evolved line 2): 256
Relative MIC (Escherichia coli ATCC 25922 (EC-SEN), evolved line 3): 512
Relative MIC (Escherichia coli ATCC 25922 (EC-SEN), evolved line 4): 256
Relative MIC (Escherichia coli ATCC 25922 (EC-SEN), evolved line 5): 128
Relative MIC (Escherichia coli ATCC 25922 (EC-SEN), evolved line 6): 512
Relative MIC (Escherichia coli ATCC 25922 (EC-SEN), evolved line 7): 256
Relative MIC (Escherichia coli ATCC 25922 (EC-SEN), evolved line 8): 128
Relative MIC (Escherichia coli ATCC 25922 (EC-SEN), evolved line 9): 256
Relative MIC (Escherichia coli ATCC 25922 (EC-SEN), evolved line 10): 16
Relative MIC (Escherichia coli NCTC 13846 (EC-MDR), evolved line 1): 8
Relative MIC (Escherichia coli NCTC 13846 (EC-MDR), evolved line 2): 16
Relative MIC (Escherichia coli NCTC 13846 (EC-MDR), evolved line 3): 16
Relative MIC (Escherichia coli NCTC 13846 (EC-MDR), evolved line 4): 16
Relative MIC (Escherichia coli NCTC 13846 (EC-MDR), evolved line 5): 32
Relative MIC (Escherichia coli NCTC 13846 (EC-MDR), evolved line 6): 8
Relative MIC (Escherichia coli NCTC 13846 (EC-MDR), evolved line 7): 8
Relative MIC (Escherichia coli NCTC 13846 (EC-MDR), evolved line 8): 16
Relative MIC (Escherichia coli NCTC 13846 (EC-MDR), evolved line 9): 16
Relative MIC (Escherichia coli NCTC 13846 (EC-MDR), evolved line 10): 32
